Results as given in patent US20040044304A1, “Local drug delivery using photosensitizer-mediated and electromagnetic radiation enhanced vascular permeability” (priority 2002, published 2004).
Like-named read-outs stand apart in the source and are kept apart here.

Test system: blood vessels within the dorsal window chamber
Format: in vivo, Syrian golden hamsters
Settings: for Observations 24 hr post FITC-Dextran administration / Observations immediately post FITC-Dextran administration (extravasation): blue 425 nm; for Leakage of FITC-Dextran, dependence on presence of photosensitizer: light doses used in the evaluable animals of Tables 1-4
Text: Syrian golden hamsters (Charles River Laboratories, Kingston, N.Y.) weighing between 60-70 gram were surgically implanted with titanium back-pack window chambers as described ([…] et al., 1980; Colantuoni et al., 1984; […] et al., 1994). Prior to the surgical procedure, the dorsal surface of the mouse was shaved with electric clippers (Sunbeam Oster 2-Speed, 150 Cadillac Lane, McMinnville, Tenn., 37110) and then the shaved skin covered in a depilatory cream (Nair, Carter Products, New York, N.Y., 10105) for 10 minutes to remove the remaining hair. A dorsal skin fold consisting of two layers of skin and muscle tissue was then sandwiched between two opposing titanium frames (Campus Research Machine Shop, University of California, San Diego 9500 Gilman Drive, La Jolla, Calif.) with a 15 mm circular opening in each. Layers of skin and muscle fascia were separated from the sub-cutaneous tissue, and removed until a thin monolayer of muscle and one layer of intact skin remained. A coverglass (Type Circle 1, Part #12-545-80 sourced from Fisher Scientific, 2761 Walnut Avenue, Tustin, Calif., 92780) held by an expansion ring in the circular window of one titanium frame was then placed on the exposed tissue to allow direct microscopic visualization of the vasculature. The window in the second opposing titanium frame was left open exposing the intact skin. Two days following the implantation of the titanium chamber, an in-dwelling PE10 catheter (VVR Scientific, Westchester, Pa.) was implanted in the carotid artery. The catheter tubing was passed sub-cutaneously from the ventral to the dorsal side of the neck, and exteriorized through the skin at the base of the chamber. The patency of the catheter was ensured by daily flushing of the in-dwelling implanted tip with 0.005-0.01 ml of heparinized saline (40 IU/ml). The heparin was sourced from Upjohn Co., 100 Route […], Prepack, N.J., 07977, and the saline from Abbott Laboratories, North Chicago, Ill., 60064. Microvascular observations using an intra-vital microscope were not undertaken until at least 4 days post-chamber implantation to mitigate against post-surgical trauma, and to confirm that blood vessels within the chamber were functioning and intact and patent. A chamber was considered suitable for subsequent studies if microscopic examination of the preparation met the following criteria (as applied in […] et al., 1994): The intra-vital microscopic studies were undertaken on un-sedated animals held in a Plexiglass tube (Campus Research Machine Shop, University of California, San Diego 9500 Gilman Drive, La Jolla, Calif.) from which the window chamber sandwich protruded horizontally, allowing visualization of the chamber on the microscope stage. The Plexiglass tube acted to restrain the animals without impeding respiration. The intra-vital microscopy was performed using a Leitz Ortholux II (McBain Instruments, Inc., 9601 […] Avenue, Chatsworth, Calif., 91311) fitted with a Leitz Wetzlar 25× saline immersion objective lens, 0.6 numerical aperture (McBain Instruments, Inc., 9601 […] Avenue, Chatsworth, Calif., 91311), a Leitz Wetzlar 10× dry Planfluotar lens, 0.3 numerical aperture (McBain Instruments, Inc., 9601 […] Avenue, Chatsworth, Calif., 91311) and a Leitz Wetzlar 4× EF dry lens, 0.12 numerical aperture (McBain Instruments, Inc., 9601 […] Avenue, Chatsworth, Calif., 91311). A 100 Watt Hg light source (Olympus Corporation, 2 Corporate Center Drive, Melville, N.Y., 11747-3157) was used for both trans- and epi-illumination. For the trans-illumination studies the light was filtered using a 420 nm blue filter which selectively passed light in the region of the maximum absorbance band of hemoglobin, causing the red blood cells to appear as dark objects against a gray background. In addition, a heat filter was placed in the light path prior to the condenser to prevent hyperthermic effects on the tissue being examined.

SMILES	Observations 24 hr post FITC-Dextran administration (hamster A69, SnET2 1.0 mg/kg i.c., 25 J/cm^2, 44 mW/cm^2)	Observations immediately post FITC-Dextran administration (extravasation) (hamster A69, SnET2 1.0 mg/kg i.c., 25 J/cm^2, 44 mW/cm^2, FITC-Dextran approx. 45 min post PhotoPoint therapy)	Observations 24 hr post FITC-Dextran administration (hamster A70, SnET2 1.0 mg/kg i.c., 50 J/cm^2, 44 mW/cm^2)	Observations immediately post FITC-Dextran administration (extravasation) (hamster A70, SnET2 1.0 mg/kg i.c., 50 J/cm^2, 44 mW/cm^2, FITC-Dextran approx. 60 min post PhotoPoint therapy)	Effect on venules and veins during PhotoPoint therapy (hamster, in vivo)	Focal constrictions apparent in arterioles and arteries, time following the commencement of PhotoPoint therapy (hamster, in vivo) [s]	Leakage of FITC-Dextran, dependence on presence of photosensitizer	Observations immediately post FITC-Dextran administration (extravasation) (hamster A41, MV6401 0.05 mg/kg i.c., 50 J/cm^2, 80 mW/cm^2, FITC-Dextran approx. 30 min post PhotoPoint therapy)	Observations 24 hr post FITC-Dextran administration (hamster A46, MV6401 0.15 mg/kg i.c., 50 J/cm^2, 56.6 mW/cm^2)	Observations immediately post FITC-Dextran administration (extravasation) (hamster A46, MV6401 0.15 mg/kg i.c., 50 J/cm^2, 56.6 mW/cm^2, FITC-Dextran approx. 50 min post PhotoPoint therapy)	Dilation apparent in venules and veins, time following the commencement of PhotoPoint therapy (hamster, in vivo) [s]	Edema apparent in tissue in chamber, 24 hr post FITC-Dextran administration (hamster, in vivo, 0.05 mg/kg)	Vascular damage, 24 hr post FITC-Dextran administration (hamster, in vivo, 0.05 mg/kg)
CCOC(=O)C1=Cc2c3nc(cc4nc(cc5[n-]c(cc6[n-]c2c(C)c6CC)c(C)c5CC)C(C)=C4CC)[C@@H](C)[C@]13CC.[Cl-].[Cl-].[Sn] (racemic) [SnET2, tin ethyl etiopurpurin]	Results as for Animal A35.	Results as for Animal A35.	Results as for Animal A35.	Results as for Animal A35.	some minor constriction	≤ 30	only occurred when the photosensitizer (either MV6401 or SnET2) was present	–	–	–	–	–	–
C=Cc1c(C)c2[n]3c1=CC1=NC(=Cc4c(C)c5c([n]4[In]3[Cl])C(=C3N=C(C=2)[C@@H](C)[C@@H]3CCC(=O)OC)CC5=O)C(CC)=C1C [MV6401, indium methyl pyropheophorbide]	–	–	–	–	–	≤ 30	only occurred when the photosensitizer (either MV6401 or SnET2) was present	Results as for Animal A35	Results as for Animal A35.	Results as for Animal A35.	≤ 30	vascular damage. Severe	Gross and microscopic
